# Results reported in patent US20240245804A1 (priority 2021, published 2024).
# Entries after “also recorded” stand apart in the source; their conditions may differ.
# Experiments:
# [1] = test system: STING; format: cell-based, mouse
# [2] = test system: STING; format: cell-based, mouse; remark: listed apart in the source
# [3] = test system: STING; format: cell-based, mouse; remark: listed apart in the source
# [4] = test system: STING; format: cell-based, mouse; remark: listed apart in the source
# [5] = test system: THP1-Blue-ISG reporter cells; format: cell-based
molecule,measurement,setting,value
Nc1ncnc2c1ncn2[C@@H]1O[C@@H]2COP(=O)(O)O[C@H]3[C@@H](O)[C@H](n4cnc5c(N)ncnc54)O[C@@H]3COP(=O)(O)O[C@H]2[C@H]1O [c-di-AMP],STING agonism / activation of the pathway,[1],agonists of STING; also recorded: stronger activation
same,induction of nitrite,[2],more potent induction
same,induction of IFNß,[3],more potent induction
same,STING agonism evidenced by induction of a variety of inflammatory genes,[4],agonists of STING; also recorded: stronger activation
"Nc1nc2c(ncn2[C@@H]2O[C@@H]3COP(=O)(O)O[C@H]4[C@@H](O)[C@H](n5cnc6c(N)ncnc65)O[C@@H]4COP(=O)(O)O[C@@H]2[C@@H]3O)c(=O)[nH]1 [cGAMP, 2′3′-cGAMP]",STING agonism evidenced by induction of a variety of inflammatory genes,[4],agonists of STING
"CdaA: c-di-AMP cyclase from Listeria monocytogenes, wild type, expressed from plasmid in HEK 293T cells (protein, UniProt Q45589 1-273, looked up) Cyclic di-AMP synthase CdaA: MAFEDIPFLQYLGNAVDILLVWYVIYKLIMVIRGTKAVQLLKGIVVIVLVRMASQYLGLSTLQWLMDQAITWGFLAIIIIFQPELRRALEQLGRGRFFSRSGTPVEEAQQKTIEAITKAINYMAKRRIGALLTIERDTGMGDYIETGIPLNAKVSSELLINIFIPNTPLHDGAVIMKNNEIAAAACYLPLSESPFISKELGTRHRAAVGISEVTDSLTIIVSEETGGVSVAKNGDLHRELTEEALKEMLEAEFKKNTRDTSSNRWYWRGKKNG",SEAP activity (activation of interferon signaling),[5],displayed activity
